Measurements: patent US8420636B2, “Pyrrolidinyl-alkyl-amide derivatives, their preparation, and their therapeutic application as CCR3 receptor ligands” (Sanofi, priority 2008, dated 2013)
Where two headings read alike, the source gives them in different places.

Columns and labels:
hCCR3 = target: T1, hCCR3 (Homo sapiens, UniProt P51677); experiment: Ca2+ mobilization in hCCR3-RBL and hCCR3 K562 cells (test B); assay type: cell-based
T1 construct: expressed in transfected cells; host or cells: K562 and RBL2H3 cells
T1 sequence (P51677 1-355): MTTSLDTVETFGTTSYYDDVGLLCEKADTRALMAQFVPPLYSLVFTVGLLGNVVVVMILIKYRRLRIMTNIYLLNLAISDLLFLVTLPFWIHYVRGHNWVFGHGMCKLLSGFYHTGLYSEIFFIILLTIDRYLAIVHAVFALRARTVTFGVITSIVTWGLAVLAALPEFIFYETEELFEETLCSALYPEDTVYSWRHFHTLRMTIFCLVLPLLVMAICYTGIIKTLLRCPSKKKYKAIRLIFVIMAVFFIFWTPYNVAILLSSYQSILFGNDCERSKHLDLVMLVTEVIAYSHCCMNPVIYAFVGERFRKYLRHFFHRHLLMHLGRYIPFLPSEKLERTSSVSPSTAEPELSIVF
Procedure: B.) Investigation of Ca^2+ Mobilization in hCCR3-RBL and hCCR3 K562 Cells
HCCR3-K562 and hCCE3-RBL2H3 cells in 40,000 cells/well density (number of cells in one well of the microplate) are cultured for 24 hours. The cells are washed and loaded with calcium indicator dye (Calcium Plus assay Kit, Molecular Devices). The cells are incubated in the presence of the dye for 60 minutes while loading takes place. The dye is a fluorescent calcium indicator, which sensitively indicates the intracellular calcium concentration. The intracellular calcium concentration is in direct ratio with the fluorescent signal of the sample. The experiments are performed in a BMG NOVOSTAR apparatus, at […].
The selective agonists used in the experiments are:
In the experiments an agonist concentration is used which causes a 75% calcium signal compared to the maximum attainable signal.
Antagonists are added 15 minutes before the agonist treatment.
The change of the fluorescent signal is monitored for 30 seconds, during that period the process takes place.
The intensity of the maximum calcium signal following the addition of the agonist is compared with the calcium signal obtained after the addition of the same agonist, but in the presence of the inhibitor.
The activity of the compounds is characterized with the IC50 values.

[1] = test B, inhibition of agonist-induced calcium signal in hCCR3-K562 / hCCR3-RBL2H3 cells, antagonist added 15 minutes before agonist, read-out: IC50

| Molecule | IC50 (hCCR3) [nM] | melting point [°C] | IC50 (hCCR3; [1]) [nM] |
| --- | --- | --- | --- |
| O=C(CCc1nc2nc(N3CCCC3)ccc2s1)NCCC[N+]1([O-])CCCC1c1ccc(Cl)c(Cl)c1 (centres unmarked) | – | 185 to 188 | – |
| 1-(Acetylamino)-2-(3,4-dichlorophenyl)-1-(3-{[3-(5-piperidin-1-yl[1,3]thiazolo[4,5-b]pyridin-2-yl)propanoyl]amino}propyl)pyrrolidinium hydrochloride [Example 23] | – | – | 13 |
| Cc1ccc2nc(CCC(=O)NCCCN3CCCC3c3ccc(Cl)c(Cl)c3)sc2c1 (centres unmarked) | – | 76 to 79 | – |
| CC1CN(c2ccc3nc(CCC(=O)NCCCN4CCCC4c4ccc(Cl)c(Cl)c4)sc3n2)CC(C)O1 (centres unmarked) [Example 11, N-{3-[2-(3,4-dichlorophenyl)pyrrolidin-1-yl]propyl}-3-(5-(2,6-dimethylmorpholin-4-yl)[1,3]thiazolo[5,4-b]pyridin-2-yl)propionamide] | 1.6 | – | – |
| N-{3-[2-(3,4-dichlorophenyl)-1-oxidopyrrolidin-1-yl]propyl}-3-(5-morpholin-4-yl[1,3]thiazolo[4,5-b]pyridin-2-yl)propionamide [Example 21] | – | – | 82.5 |
| 1-Amino-2-(3,4-dichlorophenyl)-1-(3-{[3-(5-pyrrolidin-1-yl[1,3]thiazolo[4,5-b]pyridin-2-yl)propanoyl]amino}propyl)pyrrolidinium tosylate [Example 14] | – | – | 1 |
| CCNC(=O)N[N+]1(CCCNC(=O)CCc2nc3nc(N4CC(C)OC(C)C4)ccc3s2)CCCC1c1ccc(Cl)c(Cl)c1.Cl (centres unmarked) | – | 115 to 118 | – |

Continued, in another order:

| IC50 (hCCR3) [nM] | melting point [°C] | Molecule | IC50 (hCCR3; [1]) [nM] |
| --- | --- | --- | --- |
| 18 | 119 to 121 | CNc1ccc2nc(CCC(=O)NCCCN3CCCC3c3ccc(Cl)c(Cl)c3)sc2n1 (centres unmarked) [Example 2, N-{3-[2-(3,4-dichlorophenyl)pyrrolidin-1-yl]propyl}-3-(5-(methylamino)[1,3]thiazolo[5,4-b]pyridin-2-yl)propionamide] | – |
| 0.9 | 111 to 112 | O=C(CCc1nc2ccc(N3CCOCC3)nc2s1)NCCCN1CCCC1c1ccc(Cl)c(Cl)c1 (centres unmarked) [Example 5, N-{3-[2-(3,4-dichlorophenyl)pyrrolidin-1-yl]propyl}-3-(5-morpholin-4-yl[1,3]thiazolo[5,4-b]pyridin-2-yl)propionamide] | – |
| 13 | 185 to 187 | O=C(CCc1nc2ccc(N3CCCCC3)nc2s1)NCCC[N+]1([O-])CCCC1c1ccc(Cl)c(Cl)c1 (centres unmarked) [Example 20] | – |
| 5 | 137 to 138 | O=C(CCc1nc2ccc(N3CCCC3)nc2s1)NCCCN1CCCC1c1ccc(Cl)c(Cl)c1 (centres unmarked) [Example 3, N-{3-[2-(3,4-dichlorophenyl)pyrrolidin-1-yl]propyl}-3-(5-pyrrolidin-1-yl[1,3]thiazolo[5,4-b]pyridin-2-yl)propionamide] | – |
| – | 125 to 130 | Cc1ccc2nc(CCC(=O)NCCCN3CCCC3c3ccc(Cl)c(Cl)c3)sc2n1 (centres unmarked) | – |
| 3.9 | 105 | O=C(CCc1nc2ncc(N3CCCCC3)nc2s1)NCCCN1CCCC1c1ccc(Cl)c(Cl)c1 (centres unmarked) [Example 9] | – |
| 3.4 | 93 to 95 | O=C(CCc1nc2ccc(N3CCCCC3)nc2s1)NCCCN1CCCC1c1ccc(Cl)c(Cl)c1 (centres unmarked) [Example 4, N-{3-[2-(3,4-dichlorophenyl)pyrrolidin-1-yl]propyl}-3-(5-piperidin-1-yl[1,3]thiazolo[5,4-b]pyridin-2-yl)propionamide] | – |
